Three compounds from patent US20190330224A1, “ACC INHIBITORS AND USES THEREOF” (Gilead Apollo, LLC, priority 2015, published 2019) can be followed below.

Experiment [1] has as its system Phytophthora capsici (Pc). Nature of the experiment: Growth inhibition assay of fungal pathogens, Pc. It counts as cell-based. As to conditions: 48 hours, read-out: Concentration at 90% Inhibition, Pc. In short, it runs like this:
(§1)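 Spores in 17% V8 liquid medium were exposed to compound at final 50, 10 and 2 ppm or 2, 0.4 and 0.08 ppm with 2% DMSO. After 48 h, OD600 (blank-subtracted) and visual ratings were compared with the 2% DMSO control to give percent growth inhibition.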

Experiment [2] relates to Fusarium virguliforme (Fv). Nature of the experiment: Growth inhibition assay of fungal pathogens, Fv. Format: cell-based. As to conditions: 48 hours, read-out: Concentration at 90% Inhibition, Fv. In outline:
as §1

In the next experiment the test system is C. albicans ATCC 90028. Put plainly: Anti-Fungal Activity Assay (broth microtiter MIC), C. albicans. Format: cell-based, Candida albicans. As to conditions: Candida albicans, ATCC90028, 48 h, 3 replicates; MIC recorded at 48 h; read-out: MIC C. albicans ATCC 90028. In outline: (§2)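 Susceptibility testing used direct colony suspensions in RPMI 1640+MOPS from Sabouraud dextrose agar grown at 35° C. Endpoints were visual MICs at 48 h under CLSI M27-A3 microtiter conditions, plus a 24 h reading for soraphen.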

The test system of experiment [3] is Fusarium moniliforme (Fm). Put plainly: Growth inhibition assay of fungal pathogens, Fm. It counts as cell-based. Conditions: Fusarium verticillioides; 48 hours; read-out: Concentration at 90% Inhibition, Fm. In outline:
as §1

Another experiment deals with Botrtyis cinerea (Bc). Nature of the experiment: Growth inhibition assay of fungal pathogens, Bc. It counts as cell-based. Conditions: 48 hours; read-out: Concentration at 90% Inhibition, Bc. In short, it runs like this:
as §1

In another experiment the test system is C. krusei ATCC 6258. Put plainly: Anti-Fungal Activity Assay (broth microtiter MIC), C. krusei. Format: cell-based, Candida krusei. Conditions: Pichia kudriavzevii, ATCC6258, 48 h, 3 replicates; MIC recorded at 48 h; read-out: MIC C. krusei ATCC 6258. In outline: as §2
In the next experiment the test system is Diplodia maydis (Dm). Put plainly: Growth inhibition assay of fungal pathogens, Dm. Conditions: Stenocarpella maydis; 48 hours; read-out: Concentration at 90% Inhibition, Dm. It counts as cell-based. In short, it runs like this:
as §1

Another experiment deals with Fungal ACC2 (UniProt Q00955). As to conditions: read-out: Fungal ACC2 (IC50, in vitro ACC2 inhibition).
For a further experiment, the target named is Human ACC2 (Homo sapiens, UniProt O00763). Put plainly: In vitro ACC2 inhibition assay (ADP-Glo), human ACC2. Format: biochemical. As to conditions: 5 nM ACC2, 20 μM ATP, 20 μM acetyl-CoA.
The test system of the next experiment is Rhizoctonia solani (Rs). Put plainly: Growth inhibition assay of fungal pathogens, Rs. As to conditions: 48 hours, read-out: Concentration at 90% Inhibition, Rs. Format: cell-based.
For experiment [4], the system named is Blumeria graminis f sp. hordei. Nature of the experiment: Foliar protection test, barley powdery mildew control. Format: in vivo, Blumeria graminis f sp. hordei on Hordeum vulgare cv. Perry. As to conditions: 168 h, compound concentration 50 ppm, foliar spray, evaluated 7 days after inoculation, read-out: Barley Powdery Mildew Control at 50 ppm. In short, it runs like this:
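Barley cv. Perry at first true leaf (6 days) sprayed to wetness on both leaf sides with compound in 5% acetone/0.005% Tween 80, typically at 200, 100, 50, 10 or 2 ppm. Inoculated 24 h later by shaking spores from colonized plants; kept at 20-22 °C, 70% RH. Mildew colonization scored 7 days later as percent control.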

Experiment [5] relates to C. parapsilosis ATCC 22019. Put plainly: Anti-Fungal Activity Assay (broth microtiter MIC), C. parapsilosis. Format: cell-based, Candida parapsilosis. As to conditions: Lodderomyces parapsilosis, ATCC22019, 48 h, 3 replicates; MIC recorded at 48 h; read-out: MIC C. parapsilosis ATCC 22019. In short, it runs like this: as §2
Experiment [6] concerns Collectotrichum graminicola (Cg). Nature of the experiment: Growth inhibition assay of fungal pathogens, Cg. Format: cell-based. Conditions: 48 hours; read-out: Concentration at 90% Inhibition, Cg. In outline:
as §1

The subject of another experiment is Septoria tritici (St). Put plainly: Growth inhibition assay of fungal pathogens, St. Format: cell-based. As to conditions: Zymoseptoria tritici; 48 hours; read-out: Concentration at 90% Inhibition, St. In outline:
as §1

The conditions of experiment [7]: compound concentration 10 ppm, foliar spray, evaluated 7 days after inoculation.

≈ marks a conversion by molar mass, not a printed value. Bounds are passed on as bounds.

Sequence of Human ACC2 (O00763 whole entry): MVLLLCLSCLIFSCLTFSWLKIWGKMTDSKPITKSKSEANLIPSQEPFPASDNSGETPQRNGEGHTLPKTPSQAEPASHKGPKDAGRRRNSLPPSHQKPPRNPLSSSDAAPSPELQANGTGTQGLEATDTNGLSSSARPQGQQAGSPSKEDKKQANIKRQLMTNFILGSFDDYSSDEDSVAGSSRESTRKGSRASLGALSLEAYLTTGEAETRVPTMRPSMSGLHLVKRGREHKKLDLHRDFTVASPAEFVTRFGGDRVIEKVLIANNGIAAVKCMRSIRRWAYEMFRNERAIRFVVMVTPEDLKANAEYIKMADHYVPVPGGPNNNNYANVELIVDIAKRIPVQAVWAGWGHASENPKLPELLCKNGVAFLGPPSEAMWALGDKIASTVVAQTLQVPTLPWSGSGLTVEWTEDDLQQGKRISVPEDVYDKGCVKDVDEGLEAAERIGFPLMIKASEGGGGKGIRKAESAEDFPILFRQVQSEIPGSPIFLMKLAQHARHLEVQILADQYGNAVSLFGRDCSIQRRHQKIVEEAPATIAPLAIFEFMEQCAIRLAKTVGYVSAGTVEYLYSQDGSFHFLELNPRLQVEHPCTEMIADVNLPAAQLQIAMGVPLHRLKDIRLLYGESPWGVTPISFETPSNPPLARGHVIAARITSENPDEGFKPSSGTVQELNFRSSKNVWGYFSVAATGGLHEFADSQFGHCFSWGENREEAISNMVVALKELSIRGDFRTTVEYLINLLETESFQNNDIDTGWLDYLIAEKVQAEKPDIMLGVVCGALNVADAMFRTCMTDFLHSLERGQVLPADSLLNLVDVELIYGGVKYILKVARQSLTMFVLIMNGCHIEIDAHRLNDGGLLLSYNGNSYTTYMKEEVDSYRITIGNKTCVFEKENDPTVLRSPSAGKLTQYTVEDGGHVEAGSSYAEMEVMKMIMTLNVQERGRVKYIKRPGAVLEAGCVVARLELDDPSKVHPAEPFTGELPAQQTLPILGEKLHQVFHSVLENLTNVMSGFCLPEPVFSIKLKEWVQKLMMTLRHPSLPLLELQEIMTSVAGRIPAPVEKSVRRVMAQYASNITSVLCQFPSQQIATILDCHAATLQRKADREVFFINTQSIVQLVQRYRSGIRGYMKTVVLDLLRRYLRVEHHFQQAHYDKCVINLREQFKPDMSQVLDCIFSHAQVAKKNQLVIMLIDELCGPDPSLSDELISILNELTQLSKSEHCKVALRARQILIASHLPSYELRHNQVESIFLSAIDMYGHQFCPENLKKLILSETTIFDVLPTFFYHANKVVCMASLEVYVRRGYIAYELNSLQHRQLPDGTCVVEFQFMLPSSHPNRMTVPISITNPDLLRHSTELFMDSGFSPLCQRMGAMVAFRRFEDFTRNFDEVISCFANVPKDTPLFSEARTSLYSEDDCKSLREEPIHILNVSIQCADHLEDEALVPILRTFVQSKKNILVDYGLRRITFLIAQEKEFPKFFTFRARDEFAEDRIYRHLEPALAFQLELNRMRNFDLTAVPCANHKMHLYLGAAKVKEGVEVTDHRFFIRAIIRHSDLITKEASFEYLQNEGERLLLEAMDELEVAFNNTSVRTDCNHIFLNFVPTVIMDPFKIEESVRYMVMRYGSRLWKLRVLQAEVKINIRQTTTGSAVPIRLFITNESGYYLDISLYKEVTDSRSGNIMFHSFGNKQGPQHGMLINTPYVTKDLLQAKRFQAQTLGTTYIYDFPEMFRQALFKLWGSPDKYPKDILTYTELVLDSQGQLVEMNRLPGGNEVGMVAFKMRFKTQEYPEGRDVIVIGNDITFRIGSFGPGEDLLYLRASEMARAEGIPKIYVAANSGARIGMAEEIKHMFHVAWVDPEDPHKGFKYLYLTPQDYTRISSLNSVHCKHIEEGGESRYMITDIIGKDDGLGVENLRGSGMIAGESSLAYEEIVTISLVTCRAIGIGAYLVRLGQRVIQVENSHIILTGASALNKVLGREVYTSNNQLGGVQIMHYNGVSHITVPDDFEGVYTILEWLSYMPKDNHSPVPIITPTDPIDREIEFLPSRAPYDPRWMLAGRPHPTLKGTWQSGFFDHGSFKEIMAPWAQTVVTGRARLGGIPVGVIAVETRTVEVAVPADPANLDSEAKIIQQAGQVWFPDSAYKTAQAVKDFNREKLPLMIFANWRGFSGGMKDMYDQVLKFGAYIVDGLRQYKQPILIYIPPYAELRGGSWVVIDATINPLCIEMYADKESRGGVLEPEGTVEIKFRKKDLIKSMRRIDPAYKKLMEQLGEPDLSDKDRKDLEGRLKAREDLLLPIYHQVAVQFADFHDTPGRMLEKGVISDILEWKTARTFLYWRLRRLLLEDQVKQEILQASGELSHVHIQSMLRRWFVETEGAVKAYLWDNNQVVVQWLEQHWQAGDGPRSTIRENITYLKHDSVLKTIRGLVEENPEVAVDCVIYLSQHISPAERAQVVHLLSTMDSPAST
Sequence of Fungal ACC2 (Q00955 whole entry): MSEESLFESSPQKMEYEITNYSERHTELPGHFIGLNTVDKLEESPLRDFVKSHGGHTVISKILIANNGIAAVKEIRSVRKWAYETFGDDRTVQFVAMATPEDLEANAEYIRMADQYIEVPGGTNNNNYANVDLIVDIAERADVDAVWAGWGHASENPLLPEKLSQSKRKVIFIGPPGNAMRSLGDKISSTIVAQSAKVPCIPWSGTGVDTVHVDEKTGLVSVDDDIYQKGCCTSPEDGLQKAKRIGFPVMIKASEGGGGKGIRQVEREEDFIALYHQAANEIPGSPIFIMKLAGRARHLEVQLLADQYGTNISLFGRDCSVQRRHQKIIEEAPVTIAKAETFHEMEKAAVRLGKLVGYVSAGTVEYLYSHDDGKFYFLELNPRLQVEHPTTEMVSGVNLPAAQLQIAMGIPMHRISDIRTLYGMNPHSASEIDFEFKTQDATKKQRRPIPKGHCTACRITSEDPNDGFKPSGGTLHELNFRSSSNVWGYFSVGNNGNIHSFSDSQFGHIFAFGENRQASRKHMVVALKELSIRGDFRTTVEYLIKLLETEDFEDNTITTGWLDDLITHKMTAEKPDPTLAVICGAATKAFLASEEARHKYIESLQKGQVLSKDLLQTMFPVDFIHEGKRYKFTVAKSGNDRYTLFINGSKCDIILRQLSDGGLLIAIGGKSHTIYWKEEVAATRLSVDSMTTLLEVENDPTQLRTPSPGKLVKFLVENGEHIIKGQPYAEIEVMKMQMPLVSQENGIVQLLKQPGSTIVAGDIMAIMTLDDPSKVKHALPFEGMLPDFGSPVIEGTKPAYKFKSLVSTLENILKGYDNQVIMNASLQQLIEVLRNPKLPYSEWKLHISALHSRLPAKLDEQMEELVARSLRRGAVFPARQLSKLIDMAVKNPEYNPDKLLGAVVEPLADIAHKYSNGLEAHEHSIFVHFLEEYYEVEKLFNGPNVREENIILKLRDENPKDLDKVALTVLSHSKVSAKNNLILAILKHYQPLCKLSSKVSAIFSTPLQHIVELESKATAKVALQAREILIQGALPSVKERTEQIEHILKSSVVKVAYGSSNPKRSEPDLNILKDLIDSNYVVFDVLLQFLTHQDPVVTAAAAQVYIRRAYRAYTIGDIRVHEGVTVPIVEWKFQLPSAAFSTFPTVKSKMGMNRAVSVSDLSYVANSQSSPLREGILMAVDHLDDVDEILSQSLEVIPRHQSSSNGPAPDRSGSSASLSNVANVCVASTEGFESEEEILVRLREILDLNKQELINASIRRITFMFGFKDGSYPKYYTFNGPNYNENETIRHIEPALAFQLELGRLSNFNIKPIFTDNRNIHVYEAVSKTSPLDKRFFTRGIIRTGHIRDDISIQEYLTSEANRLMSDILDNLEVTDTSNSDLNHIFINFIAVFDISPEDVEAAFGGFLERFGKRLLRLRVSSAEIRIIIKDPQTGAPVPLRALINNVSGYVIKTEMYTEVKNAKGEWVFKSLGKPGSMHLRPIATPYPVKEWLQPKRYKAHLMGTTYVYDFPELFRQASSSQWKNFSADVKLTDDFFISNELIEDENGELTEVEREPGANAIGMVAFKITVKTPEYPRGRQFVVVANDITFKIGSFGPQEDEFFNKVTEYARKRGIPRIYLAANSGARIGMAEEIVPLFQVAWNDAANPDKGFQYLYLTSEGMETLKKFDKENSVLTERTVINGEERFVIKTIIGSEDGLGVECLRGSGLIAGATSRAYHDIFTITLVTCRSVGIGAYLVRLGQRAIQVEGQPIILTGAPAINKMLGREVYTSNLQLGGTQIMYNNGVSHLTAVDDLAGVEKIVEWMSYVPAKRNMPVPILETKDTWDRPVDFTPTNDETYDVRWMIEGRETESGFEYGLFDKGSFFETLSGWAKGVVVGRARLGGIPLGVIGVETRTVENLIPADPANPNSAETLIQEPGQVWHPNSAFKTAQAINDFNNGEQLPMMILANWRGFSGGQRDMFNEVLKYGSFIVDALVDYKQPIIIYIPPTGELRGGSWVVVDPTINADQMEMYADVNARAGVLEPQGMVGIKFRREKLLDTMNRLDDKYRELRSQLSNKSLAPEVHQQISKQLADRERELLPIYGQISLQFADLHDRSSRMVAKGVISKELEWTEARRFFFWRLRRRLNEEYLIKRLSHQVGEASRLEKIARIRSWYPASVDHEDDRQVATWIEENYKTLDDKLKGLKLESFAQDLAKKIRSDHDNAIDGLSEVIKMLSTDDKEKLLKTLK

On to `COc1ccc(F)cc1[C@H](Cn1c(=O)n([C@H]2CCNC2=O)c(=O)c2c(C)c(-n3nccn3)sc21)OCCO` [Compound I-80, 1-((R)-2-(5-fluoro-2-methoxyphenyl)-2-(2-hydroxy-ethoxy)ethyl)-5-methyl-3-((S)-2-oxopyrrolidin-3-yl)-6-(2H-1,2,3-triazol-2-yl)thieno[2,3-d]pyrimidine-2,4(1H,3H)-dione], for which the IC90 in experiment [1] was over 50 µg/mL; in experiment [2], 10 µg/mL (≈ 18.4 µM); in [3] it was 2 µg/mL (≈ 3.67 µM); in the experiment with Botrtyis cinerea (Bc) it was 2 µg/mL (≈ 3.67 µM); in the experiment with Diplodia maydis (Dm), over 50 µg/mL; in the experiment on Rhizoctonia solani (Rs), 10 µg/mL (≈ 18.4 µM). The IC90 (in [6]; in the experiment with Septoria tritici (St)) was over 50 µg/mL in each case. Moreover, the minimum inhibitory concentration (MIC) (with C. albicans ATCC 90028; with C. krusei ATCC 6258; in experiment [5]) was 2.1 to 4 µg/mL (≈ 3.86 to 7.35 µM) throughout. For the same compound, the values for the concentration for half-maximal inhibition (IC50) at Fungal ACC2 and at Human ACC2 were 0.7 to 2 nM and 2 to 10 nM, respectively. Besides, the pest or weed control at 50 ppm in experiment [4] is 25 to 49%. Moreover, the “Barley Powdery Mildew Control at 10 ppm” value in [7] was “D (provided a compound having <25% control of barley powdery mildew)”.
Regarding `COc1ccc(F)cc1[C@H](Cn1c(=O)n([C@H]2CCCNC2=O)c(=O)c2c(C)c(-n3nccn3)sc21)OCCO` [Compound I-70, 1-((R)-2-(5-fluoro-2-methoxyphenyl)-2-(2-hydroxy-ethoxy)ethyl)-5-methyl-3-((S)-2-oxopiperidin-3-yl)-6-(2H-1,2,3-triazol-2-yl)thieno[2,3-d]pyrimidine-2,4(1H,3H)-dione], the IC90 was over 50 µg/mL in experiment [1]; 2 µg/mL (≈ 3.58 µM) in [2]; 2 µg/mL (≈ 3.58 µM) in [3]; 2 µg/mL (≈ 3.58 µM) with Botrtyis cinerea (Bc); over 50 µg/mL in the experiment on Diplodia maydis (Dm); 10 µg/mL (≈ 17.9 µM) in the experiment on Rhizoctonia solani (Rs). Further, the results for the IC90 (in [6]; in the experiment with Septoria tritici (St)) were 10 µg/mL (≈ 17.9 µM) and over 50 µg/mL, respectively. Further, the MIC (in the experiment on C. albicans ATCC 90028; in the experiment on C. krusei ATCC 6258; in experiment [5]) was 2.1 to 4 µg/mL (≈ 3.76 to 7.16 µM) in each case. The figures for the IC50 at Fungal ACC2 and against Human ACC2 were 0.7 to 2 nM and 10 to 100 nM, respectively. In addition, the pest or weed control at 50 ppm in experiment [4] was 50 to 69%. Further, the “Barley Powdery Mildew Control at 10 ppm” value in experiment [7] was “D (provided a compound having <25% control of barley powdery mildew)”.
In the case of `COCCO[C@@H](Cn1c(=O)n([C@@H]2CCCN(C)C2=O)c(=O)c2c(C)c(-n3nccn3)sc21)c1cc(F)ccc1OC` [Compound I-32, 1-((R)-2-(5-fluoro-2-methoxyphenyl)-2-(2-methoxy-ethoxy)ethyl)-5-methyl-3-((R)-1-methyl-2-oxopiperidin-3-yl)-6-(2H-1,2,3-triazol-2-yl)thieno[2,3-d]pyrimidine-2,4(1H,3H)-dione], the IC90 was over 50 µg/mL in [1]; over 50 µg/mL in experiment [2]; 2 µg/mL (≈ 3.41 µM) in experiment [3]; 10 µg/mL (≈ 17 µM) in the experiment on Botrtyis cinerea (Bc); over 50 µg/mL with Diplodia maydis (Dm); over 50 µg/mL in the experiment on Rhizoctonia solani (Rs). Further, the IC90 (in [6]; in the experiment with Septoria tritici (St)) was over 50 µg/mL throughout. The MIC (in the experiment with C. albicans ATCC 90028; with C. krusei ATCC 6258; in [5]) was 2.1 to 4 µg/mL (≈ 3.58 to 6.82 µM) in each case. For the same compound, the concentration for half-maximal inhibition (IC50) (usually the concentration at which inhibition is half-maximal) on Fungal ACC2 is 0.7 to 2 nM; against Human ACC2, 10 to 100 nM. Also, in [4], the pest or weed control at 50 ppm is 70 to 84%. In experiment [7], the “Barley Powdery Mildew Control at 10 ppm” value is “C (provided a compound having from 25 to 49% control of barley powdery mildew)”.
